# “Also recorded” adds a separate entry of the source.
# Tests used:
# [1] = tested on: glial (C6) tumor cell line; assay: growth inhibition of glial tumor cell line in cell culture; type: cell-based, rat
# Method: (§1) For the latter cell line, however, the experiments are not complete as yet. […] The effect was concentration-dependent. […] The tumor cells were inhibited selectively beginning after 30 minutes. Following 1 to 3 hours about 90% of the tumor cells were inhibited. For the cell culture, cells were used in RPM1 1640 medium and plated in Falcon flasks.
# [2] = cited from earlier work
# [3] = tested on: glioblastoma multiform-tumor cells; assay: tissue-culture of glioblastoma multiform tumor cells
# [4] = tested on: CNS tumor cell lines (HT22, C6, U373); assay: inhibition of CNS tumor cells in culture (lines reported together), cytological changes recorded over time; type: cell-based; settings: for time after which inhibition of tumor cells started: Results section (HT22, C6)
# [5] = tested on: mixed neuronal and glial (U373) tumor cell line; assay: growth inhibition of mixed neuronal and glial tumor cell line in cell culture; type: cell-based, human; settings: experiments are not complete as yet
# Method: as §1
# [6] = tested on: neuronal (HT22) tumor cell line; assay: growth inhibition of neuronal tumor cell line in cell culture; type: cell-based, mouse
# Method: as §1
# [7] = tested on: primary CNS-cells (brain cells of rat fetuses); assay: effect on primary CNS cells in cell culture; type: cell-based
# [8] = following 1 to 3 hours, Example 1
# [9] = following about 1 to 2 hours, Results section
SMILES,direct inhibition of growth of tumor cell line [1],water solubility [2],concentration that inhibits or kills tumor cells in tissue-culture [3] [mg/mL],time after which inhibition of tumor cells started [4] [min],"tumor cells inhibited [4, 8]","tumor cells inhibited [4, 9] [%]",direct inhibition of growth of tumor cell line [5],direct inhibition of growth of tumor cell line [6],effectiveness relative to Taurolidine [4],time after which selective inhibition of tumor cells began ([4]; Example 1) [min],cytological effect on primary CNS-cells ([7]; following 48 hours),"effect on CNS nerve cells, including stem cells of embryo meningeal cells ([7]; following administration of Taurolidine/Taurultam solutions)","growth inhibition of normal/primary central nervous system cells (selectivity versus tumor cells) ([7]; primary cell lines of fetal rat central nervous system, compared to tumor cells)"
"O=S1(=O)CCN(CN2CCS(=O)(=O)NC2)CN1 [Taurolidine, Bis-(1,1-dioxoperhydro-1,2,4-thiadiazinyl-4)methane]",inhibit directly the growth,up to 2%,0.1 to 4,10,about 90%,90,inhibit directly the growth,inhibit directly the growth,,,,,
O=S1(=O)CCNCN1 [Taurultam],inhibit directly the growth,,,10,about 90%,90,inhibit directly the growth,inhibit directly the growth,almost twice as effective as Taurolidine,30,no significant cytological effect,remain unaffected,required significantly higher concentrations and a significantly longer contact time for inhibition; also recorded: not significantly inhibited
